Measured values taken from PMC3269530 (Journal of Molecular Biology, 2011).

Legend:
ArfA-c(D236A) = format: binding, M. tuberculosis; conditions: pH 7
[1] = test system: R277E mutant of ArfA-c(D236A); format: binding, M. tuberculosis

For “uridine-5'-diphosphate–MurNAc–L-Ala–D-γ-Glu–m-DAP–D-Ala– D-Ala [UMDP]”, the “peak changes in 1H/15N NMR spectrum on addition of peptide” value (ArfA-c(D236A)) was “several peak frequency and intensity changes” and the “changes in the NMR spectrum of the R277E mutant” value [1] was “no changes were observed”.
